Experimental data as given in paper PMC5084761, “Crisaborole Topical Ointment, 2% in Patients Ages 2 to 17 Years with Atopic Dermatitis: A Phase 1b, Open‐Label, Maximal‐Use Systemic Exposure Study” (Pediatric Dermatology, 2016).
Like-named read-outs stand apart in the source and are kept apart here. Each block holds one compound with its values, some of them ahead of it.

Columns and labels:
[1] = in vivo
Description: (§1) This was a phase 1b, multicenter, open‐label, maximal‐use study of crisaborole topical ointment, 2% applied twice daily (BID). The study included a PK and safety phase (dose application in clinic from day 1 through the morning dose on day 9) and a non‐PK safety phase (at‐home dose application from the evening dose on day 9 through day 28). […] The primary objective was to evaluate the systemic exposure, PK, and safety of crisaborole topical ointment, 2% when applied under maximal‐use conditions in children and adolescents 2 to 17 years of age.
(§2) Crisaborole topical ointment, 2% was applied BID to all treatable AD‐affected areas at an intended dose of 3 mg/cm^2. The per‐application dosage was calculated in grams at baseline for each patient based on total body surface area (BSA) and treatable percentage of BSA (percentage of AD‐involved skin excluding scalp and venous access areas). During the PK phase, the per‐application dosage remained fixed at the baseline level and was applied BID, with the evening application occurring 8 to 12 hours after the morning application.
(§3) The primary study endpoints were PK and safety of crisaborole topical ointment, 2% under maximal‐use conditions. PK profiles were developed for crisaborole and its major oxidative metabolites AN7602 and AN8323 based on plasma samples obtained on days 1 and 8. Calculated PK parameters included area under the curve (AUC), maximum plasma concentration (C max), time to C max (T max), and terminal half‐life (t 1/2), assessed on days 1 and 8.
(§4) Plasma PK samples were evaluated for crisaborole, AN7602, and AN8323 using a validated high‐performance liquid chromatography tandem mass spectrometry assay and analyzed using analysis of variance (ANOVA). Descriptive PK parameters were determined using standard noncompartmental methods based on concentration‐versus‐time curves for each patient.
(§5) If no statistically significant differences were observed using this model, the PK analysis was performed for all study patients.

[2] = Plasma pharmacokinetics after topical application of crisaborole topical ointment, 2% BID under maximal-use conditions (HPLC tandem mass spectrometry, noncompartmental); conditions: for Cmax: 3 mg/cm^2, C max
Description: as §1, §2, §3, §4, §5

[3] = tested on: children and adolescents with mild to moderate AD; assay: Efficacy: ISGA, treatment success, AD signs and symptoms, treatable percentage of BSA; assay type: in vivo, human (patients ages 2 to 17 years); conditions: for Percentage change from baseline in treatable percentage of BSA, mean ± SD: after 4 wks
Description: Secondary assessments included treatment success, defined as an Investigator Static Global Assessment (ISGA) score of 1 or less (clear or almost clear) with a two‐grade improvement or more from baseline. The proportion of patients achieving an ISGA of 0 (clear) or 1 (almost clear) was also assessed. Improvement from baseline in AD signs and symptoms of erythema, excoriation, exudation, lichenification, and pruritus was evaluated using a 4‐point scale ranging from 0 (none) to 3 (severe). Efficacy assessments were conducted at baseline and days 5, 8, 15, 22, and 29. Change from baseline in treatable percentage of BSA was assessed at day 29 and included all AD lesions identified at baseline.

systemic exposure (in words) [1]: minimal
Compound: N#Cc1ccc(Oc2ccc(O)c(CO)c2)cc1 [AN7602]

Tmax ([2]; human, plasma, topical, 3 mg/cm^2): 3 h
AUC(0-t) ([2]; human, plasma, topical, 3 mg/cm^2, AUC0–12, mean ± SD, plasma, day 1, all patients (n = 32)): 759 ± 730 ng·h/mL
AUC(0-t) ([2]; human, plasma, topical, 3 mg/cm^2, AUC0–12, mean ± SD, plasma, day 8, all patients (n = 32)): 949 ± 1240 ng·h/mL
AUC(0-t) ([2]; human, plasma, topical, 3 mg/cm^2, AUC0–24, mean ± SD, plasma, day 1, all patients (n = 29)): 833 ± 694 ng·h/mL
AUC(0-t) ([2]; human, plasma, topical, 3 mg/cm^2, AUC0–24, mean ± SD, plasma, day 8, all patients (n = 32)): 1320 ± 1330 ng·h/mL
AUC(0-t) ([2]; human, plasma, topical, 3 mg/cm^2, AUC0–T, mean ± SD, plasma, day 1, all patients (n = 34)): 863 ± 759 ng·h/mL
AUC(0-t) ([2]; human, plasma, topical, 3 mg/cm^2, AUC0–T, mean ± SD, plasma, day 8, all patients (n = 33)): 1320 ± 1310 ng·h/mL
Cmax ([2]; human, plasma, topical, mean ± SD, plasma, day 1, all patients (n = 34)): 111 ± 113 ng/mL
Cmax ([2]; human, plasma, topical, mean ± SD, plasma, day 8, all patients (n = 33)): 127 ± 196 ng/mL
systemic exposure (in words) ([2]; maximal-use conditions, increased with treatable percentage of BSA): minimal
systemic accumulation in plasma (in words) ([2]; over 8 days of dosing): minimal systemic accumulation
time by which steady state was reached ([2]; plasma, BID dosing): ≤ 8 days
T max, median (range) ([2]; plasma, day 1, all patients (n = 34), ointment 2% at 3 mg/cm^2): 3.00 (3–12) hours
Compound: N#Cc1ccc(Oc2ccc3c(c2)COB3O)cc1 [Crisaborole, crisaborole]
Percentage change from baseline in treatable percentage of BSA, mean ± SD ([3]; cohort 1): −86.6 ± 18.6 percentage
Percentage change from baseline in treatable percentage of BSA, mean ± SD ([3]; cohort 2): −72.8 ± 24.4 percentage
Percentage change from baseline in treatable percentage of BSA, mean ± SD ([3]; cohort 3): −73.0 ± 21.7 percentage
Percentage change from baseline in treatable percentage of BSA, mean ± SD ([3]; total (N = 34)): −77.7 ± 22.1 percentage
Day 29 treatable percentage of BSA, mean ± SD (range) ([3]; cohort 1, ages 12–17 yrs (n = 12), baseline 35.8 ± 11.3): 5.7 ± 8.6 (0–29) percentage of BSA
Day 29 treatable percentage of BSA, mean ± SD (range) ([3]; cohort 2, ages 6–11 yrs (n = 12), baseline 54.9 ± 19.3): 16.3 ± 14.5 (0–40) percentage of BSA
Day 29 treatable percentage of BSA, mean ± SD (range) ([3]; cohort 3, ages 2–5 yrs (n = 10), baseline 56.9 ± 23.0): 18.6 ± 18.1 (0–46) percentage of BSA
reduction of the mean percentage of skin with AD lesions ([3]; overall, as summarised in discussion): ~ 75%
Day 29 treatable percentage of BSA, mean ± SD (range) ([3]; total (N = 34), baseline 48.7 ± 20.2): 13.2 ± 14.7 (0–46) percentage of BSA
